Data taken from US20260124191A1, “HISTONE DEACETYLASE INHIBITOR AND USES THEREOF” (NANJING HONGSHUN PHARMACEUTICAL TECHNOLOGY CO., LTD, priority 2023, published 2026).

What was measured:
HDAC = HDAC inhibitory activity assay (FRET); format: biochemical; conditions: for Inhibition rate: test concentration 100 nM, relative to DMSO control; for IC50: HDAC, FRET, read-out: Half-maximal inhibitory concentration (IC50 ± SD)
Protocol: The HDAC inhibitory activity of the synthesized compounds was determined by fluorescence resonance energy transfer (FRET), and then compared with that of the positive control to screen out compounds with better activity. HDAC was obtained by purification or purchased directly.
The method was as follows.
An enzyme was added to reaction wells, a reaction buffer was added to control wells, a sample dissolved in DMSO was added to the reaction wells, and the wells were incubated using a contactless nanoflow sonic pipetting system (Ech-550; nanoflow). A fluorescent substrate was added to each reaction well and then rotated and shaken. The wells were incubated for 1-2 h at 30° C. under a sealed condition. A TMP26-containing chromogenic agent was added to terminate the reaction and produce fluorescence. The fluorescence intensity was detected using En Vision multi-label microplate detector (Perkin Elmer) (excitation light: 490 nm, emitted light: 520 nm). After the stabilization of color development, the endpoint value was read. The percentage (relative to the DMSO control group) inhibition rate was calculated using the software GraphPad Prism 4.

[1] = test system: human non-small cell lung cancer cell line A549; assay: In vitro anti-tumor activity, MTT method; format: cell-based; conditions: 96-hour treatment
Protocol: (§1) The inhibitory effects of the compounds against human non-small cell lung cancer cell lines A549, NCI-H1650, human small cell lung cancer cell lines H446, human prostate cancer cells DU145, PC-3, LNCAP, human colon cancer cells lines HCT116, human breast cancer cells MDA-MB-231, and MCF7 tumor cell lines were determined using the MTT method.
(§2) The method was as follows. The cells in the exponential growth phase were collected to count living cells. The concentration of the cell suspension was adjusted using the corresponding medium of each group of cells. The cell suspension was added to the 96-well culture plate at 100 μL per cell, and the plate was placed in a 5% CO2 incubator at 37° C. and incubated for 24 h. Each test compound was dissolved in DMSO to prepare a stock solution with a corresponding concentration. Then, each stock solution was diluted 500-fold with the medium to prepare 4 replicate wells. 100 μL of the corresponding 500-fold solution was added to each well per cell line, with the final DMSO concentration of 0.1%. […] The half-maximal (relative to the DMSO control group) inhibition rate was calculated using the software GraphPad Prism 4.

[2] = test system: human prostate cancer cells DU145; assay: In vitro anti-tumor activity, MTT method; format: cell-based; conditions: 96-hour treatment
Protocol: as §1, §2

[3] = test system: human prostate cancer cells PC-3; assay: In vitro anti-tumor activity, MTT method; format: cell-based; conditions: PC-3, MTT, 96-hour treatment
Protocol: as §1, §2

[4] = test system: human breast cancer cells MCF7; assay: In vitro anti-tumor activity, MTT method; format: cell-based; conditions: MCF-7, MTT, 96-hour treatment
Protocol: as §1, §2

| Compound | IC50 ([1]; Homo sapiens, A549, 96 h) [nM] | IC50 ([2]; Homo sapiens, DU-145, 96 h) [nM] | IC50 ([3]; Homo sapiens, 96 h) [nM] | IC50 ([4]; Homo sapiens, MCF7, 96 h) [nM] | IC50 [2] [nM] | IC50 [3] [nM] | IC50 [4] [nM] | IC50 (HDAC) [nM] | IC50 [1] [nM] | Inhibition rate (HDAC) | Inhibition rate (HDAC; 0.1 µM) |
| --- | --- | --- | --- | --- | --- | --- | --- | --- | --- | --- | --- |
| O=C(CCCN1C(=O)C/C(=C\c2ccccc2)C1=O)N[C@H]1CCCC[C@@H]1O [Example I-10, 4-(3-((E)-benzal)-2,5-diketopyrrolidinyl)-N-((1S,2S)-2-hydroxycyclohexyl) butyramide] | > 20000 | > 20000 | > 20000 | > 20000 | – | – | – | – | – | – | – |
| O=C(CCCCCCN1C(=O)C/C(=C\c2ccccc2O)C1=O)NO [Example I-37, (E)-7-(3-(2-hydroxybenzal)-2,5-diketopyrrolidinyl)-N-hydroxyheptamide] | 4340 ± 690 | 1720 ± 120 | 1930 ± 230 | 800 ± 150 | – | – | – | – | – | 90.6% ± 0.9% | – |
| O=C(CCCCCN1C(=O)C/C(=C\c2ccccc2)C1=O)NO [Example I-3] | 3510 ± 150 | 1490 ± 210 | 4270 ± 250 | 2580 ± 70 | – | – | – | – | – | – | – |
| O=C(CCCCCCN1C(=O)C/C(=C\c2cccc(Br)c2)C1=O)NO [Example I-27, (E)-7-(3-(3-bromobenzal)-2,5-diketopyrrolidinyl)-N-hydroxyheptamide] | 2810 ± 100 | 650 ± 90 | 1060 ± 130 | 830 ± 50 | – | – | – | – | – | 90.9% ± 1.2% | – |
| CN(C)c1ccc(/C=C2\CC(=O)N(CCCCCCC(=O)NO)C2=O)cc1 [Example I-16, (E)-7-(3-(4-dimethylaminobenzal)-2,5-diketopyrrolidinyl)-N-hydroxyheptamide] | 2240 ± 80 | 920 ± 30 | 1750 ± 120 | 1160 ± 120 | – | – | – | – | – | 93.3% ± 1.0% | – |
| O=C(CCCCCN1C(=O)C/C(=C\c2ccccc2)C1=O)N[C@H]1CCCC[C@@H]1O [Example I-12, 6-(3-((E)-benzal)-2,5-diketopyrrolidinyl)-N-((1S,2S)-2-hydroxycyclohexyl)hexanamide] | > 20000 | > 20000 | > 20000 | > 20000 | – | – | – | – | – | 0% | – |
| O=C(CCCCCCN1C(=O)C/C(=C\c2ccccn2)C1=O)NO [Example I-21, (E)-7-(3-(2-methylenepyridin)-2,5-diketopyrrolidinyl)-N-hydroxyheptamide] | 2250 ± 250 | 670 ± 90 | 990 ± 40 | 1540 ± 90 | – | – | – | – | – | 88.3% ± 1.1% | – |
| O=C(CCCCCCN1C(=O)C/C(=C\c2cccs2)C1=O)NO [Example I-23, (E)-7-(3-(2-methylenethienyl)-2,5-diketopyrrolidinyl)-N-hydroxyheptamide] | 3440 ± 150 | 540 ± 100 | 910 ± 70 | 970 ± 50 | – | – | – | – | – | 84.9% ± 0.5% | – |
| Nc1cc(F)ccc1NC(=O)CCCCCCN1C(=O)C/C(=C\c2ccccc2)C1=O [Example I-9, (E)-N-(2-amino-4-fluorophenyl)-7-(3-benzal-2,5-diketopyrrolidinyl)heptamide] | > 20000 | > 20000 | > 20000 | > 20000 | – | – | – | – | – | – | – |
| O=C(CCCCCCCN1C(=O)C/C(=C\c2ccccc2)C1=O)NO [Example I-5] | 5880 ± 580 | 1560 ± 180 | 5010 ± 380 | 3890 ± 360 | – | – | – | – | – | – | – |
| CC(C)c1ccc(/C=C2\CC(=O)N(CCCCCCC(=O)NO)C2=O)cc1 [Example I-15, (E)-7-(3-(4-isopropylbenzal)-2,5-diketopyrrolidinyl)-N-hydroxyheptamide] | 3680 ± 500 | 1350 ± 270 | 1820 ± 160 | 1660 ± 140 | – | – | – | – | – | 81.4% ± 0.5% | – |
| O=C(CCCCCCN1C(=O)C/C(=C\c2ccc(Cl)cc2)C1=O)NO [Example I-26, (E)-7-(3-(4-chlorobenzal)-2,5-diketopyrrolidinyl)-N-hydroxyheptamide] | 2200 ± 260 | 570 ± 40 | 890 ± 120 | 690 ± 90 | – | – | – | – | – | 86.6% ± 0.4% | – |
| CCOc1ccccc1/C=C1\CC(=O)N(CCCCCCC(=O)NO)C1=O [Example I-38, (E)-7-(3-(2-ethoxybenzal)-2,5-diketopyrrolidinyl)-N-hydroxyheptamide] | 1780 ± 200 | 340 ± 40 | 890 ± 50 | 510 ± 70 | – | – | – | 16.7 ± 0.21 | – | – | – |
| O=C(NO)c1ccc(CN2C(=O)C/C(=C\c3ccccc3)C2=O)cc1 [Example I-41, (E)-4-((3-benzal-2,5-diketopyrrolidinyl)methyl)-N-hydroxybenzamide] | 3090 ± 410 | 2540 ± 410 | 7820 ± 900 | 6970 ± 830 | – | – | – | – | – | 77.1% ± 1.8% | – |
| O=C(CCCN1C(=O)C/C(=C\c2ccccc2)C1=O)NO [Example I-1, (E)-4-(3-benzal-2,5-dioxopyrrolidinyl)-N-hydroxybutyramide] | > 20000 | > 20000 | > 20000 | > 20000 | – | – | – | – | – | – | – |
| O=C(CCCCN1C(=O)C/C(=C\c2ccccc2)C1=O)N[C@H]1CCCC[C@@H]1O [Example I-11, 5-(3-((E)-benzal)-2,5-diketopyrrolidinyl)-N-((1S,2S)-2-hydroxycyclohexyl)pentanamide] | > 20000 | > 20000 | > 20000 | > 20000 | – | – | – | – | – | – | – |
| O=C(CCCCN1C(=O)C/C(=C\c2ccccc2)C1=O)NO [Example I-2] | > 20000 | > 20000 | > 20000 | > 20000 | – | – | – | – | – | – | – |
| Nc1cc(F)ccc1NC(=O)CCCN1C(=O)C/C(=C\c2ccccc2)C1=O [Example I-6, (E)-N-(2-amino-4-fluorophenyl)-4-(3-benzal-2,5-diketopyrrolidinyl) butyramide] | – | – | – | – | > 20000 | > 20000 | > 20000 | – | > 20000 | – | – |

Now from value to compound, other results behind:

| IC50 ([1]; Homo sapiens, A549, 96 h) [nM] | IC50 ([2]; Homo sapiens, DU-145, 96 h) [nM] | IC50 ([3]; Homo sapiens, 96 h) [nM] | IC50 ([4]; Homo sapiens, MCF7, 96 h) [nM] | IC50 [2] [nM] | IC50 [3] [nM] | IC50 [4] [nM] | IC50 (HDAC) [nM] | IC50 [1] [nM] | Compound | Inhibition rate (HDAC) | Inhibition rate (HDAC; 0.1 µM) |
| --- | --- | --- | --- | --- | --- | --- | --- | --- | --- | --- | --- |
| 1230 ± 170 | 450 ± 120 | 880 ± 100 | 820 ± 90 | – | – | – | – | – | COc1ccc(/C=C2\CC(=O)N(CCCCCCC(=O)NO)C2=O)cc1OC [Example I-34, (E)-7-(3-(3,4-dimethoxybenzal)-2,5-diketopyrrolidinyl)-N-hydroxyheptamide] | 85.3% ± 7.2% | – |
| 1880 ± 170 | – | – | – | 310 ± 50 | 2200 ± 80 | 460 ± 40 | – | – | Cc1ccc(/C=C2\CC(=O)N(CCCCCCC(=O)NO)C2=O)cc1 [Example I-18, (E)-7-(3-(4-methylbenzal)-2,5-diketopyrrolidinyl)-N-hydroxyheptamide] | – | 85.9% ± 0.9% |
| 1490 ± 90 | 250 ± 40 | 670 ± 100 | 320 ± 20 | – | – | – | 5.5 ± 0.03 | – | COc1cc(Br)ccc1/C=C1\CC(=O)N(CCCCCCC(=O)NO)C1=O [Example I-40, (E)-7-(3-(4-bromo-2-methoxybenzal)-2,5-diketopyrrolidinyl)-N-hydroxyheptamide] | – | – |
| 1520 ± 140 | 500 ± 100 | 890 ± 100 | 1020 ± 110 | – | – | – | 13 ± 0.02 | – | COc1ccc(/C=C2\CC(=O)N(CCCCCCC(=O)NO)C2=O)cc1 [Example I-33, (E)-7-(3-(4-methoxybenzal)-2,5-diketopyrrolidinyl)-N-hydroxyheptamide] | – | – |
| > 10000 | 3880 ± 40 | 1730 ± 200 | 1880 ± 140 | – | – | – | – | – | COc1cc(/C=C2\CC(=O)N(CCCCCCC(=O)NO)C2=O)cc(OC)c1O [Example I-36, (E)-7-(3-(4-hydroxy-3,5-dimethoxybenzal)-2,5-diketopyrrolidinyl)-N-hydroxyheptamide] | 74.8% ± 2.8% | – |
| 3020 ± 510 | 660 ± 120 | 890 ± 50 | 920 ± 50 | – | – | – | – | – | O=C(CCCCCCN1C(=O)C/C(=C\c2cccc(F)c2)C1=O)NO [Example I-28, (E)-7-(3-(3-fluorobenzal)-2,5-diketopyrrolidinyl)-N-hydroxyheptamide] | 85.2% ± 1.6% | – |
| 3630 ± 650 | 1030 ± 140 | 1710 ± 170 | 1270 ± 130 | – | – | – | – | – | COc1cc(/C=C2\CC(=O)N(CCCCCCC(=O)NO)C2=O)cc(OC)c1OC [Example I-35, (E)-7-(3-(3,4,5-trimethoxybenzal)-2,5-diketopyrrolidinyl)-N-hydroxyheptamide] | 82.5% ± 3.5% | – |
| 5090 ± 230 | 910 ± 70 | 1470 ± 150 | 1380 ± 120 | – | – | – | – | – | O=C(CCCCCCN1C(=O)C/C(=C\c2cccc(I)c2)C1=O)NO [Example I-29, (E)-7-(3-(3-iodobenzal)-2,5-diketopyrrolidinyl)-N-hydroxyheptamide] | 91.3% ± 0.7% | – |
